Earlier results in patent publication US8618022B2, “Process for preparing an aqueous suspension of an organic pesticide compound” (priority 2009, dated 2013).
Values after ≈ are worked out from the molar mass of the structure shown.

Details: for water solubility: deionised water at 20° C.

SMILES	water solubility	solubility in water (at 20° C.) [µg/mL]
Cc1c(COC(=O)[C@@H]2[C@H](/C=C(\Cl)C(F)(F)F)C2(C)C)cccc1-c1ccccc1 (racemic) [bifenthrin]	0.1 mg/L (≈ 0.236 µM)	–
ClC1=C(Cl)C2(Cl)C3C4C=CC(C4)C3C1(Cl)C2(Cl)Cl (stereo not shown) [aldrin]	<<1 mg/l	–
CCCCN(CC)c1c([N+](=O)[O-])cc(C(F)(F)F)cc1[N+](=O)[O-] [benfluralin]	<1 mg/L	–
COP(=S)(OC)Oc1cc(Cl)c(Br)cc1Cl [bromophos]	40 mg/L (≈ 109 µM)	–
CC(C)OC(=O)C(O)(c1ccc(Br)cc1)c1ccc(Br)cc1 [bromopropylate]	<5 mg/L	–
CCOP(=S)(OCC)ON=C(C#N)c1ccccc1Cl [chlorphoxim]	2 mg/L (≈ 6.01 µM)	–
CCOP(=S)(OCC)Oc1nc(Cl)c(Cl)cc1Cl [chlorpyriphos]	2 mg/L (≈ 5.7 µM)	–
CC1(C)CCC(Cc2ccc(Cl)cc2)C1(O)Cn1cncn1 (stereo not shown) [metconazol]	1400 mg/L (≈ 4380 µM)	–
CC(C)OC(=O)c1cc(C(=O)OC(C)C)cc([N+](=O)[O-])c1 [nitrothal-isopropyl]	0.4 mg/L (≈ 1.35 µM)	–
COP(=S)(OC)SCN1C(=O)c2ccccc2C1=O [phosmet]	25 mg/L (≈ 78.8 µM)	–
O=C(Nc1ccc(F)cc1)c1cccc(Oc2cccc(C(F)(F)F)c2)n1 [picolinafen]	<0.1 mg/L	–
CO/C=C(/C(=O)OC)c1ccccc1COc1cccc(C(F)(F)F)n1 [picoxystrobin]	3.1 mg/L (≈ 8.44 µM)	–
COC(=O)N(OC)c1ccccc1COc1ccn(-c2ccc(Cl)cc2)n1 [pyraclostrobin, methyl {2-[1-(4-chlorophenyl)pyrazol-3-yloxymethyl]phenyl}-(methoxy)carbamate]	–	< 2
